Assay results published in patent US9790229B2, “Bruton's tyrosine kinase inhibitors” (priority 2009, dated 2017).
Read-outs that look alike come from different tables or passages of the source.

Target: BTK (Homo sapiens (Human), UniProt Q06187)
Assay: In vitro BTK kinase assay: BTK-POLYGAT-LS ASSAY
[1] = read-out: IC50 (10 uM ATP), 10 uM ATP, in vitro Btk kinase assay, Example 41

Chain of BTK (Q06187 whole entry): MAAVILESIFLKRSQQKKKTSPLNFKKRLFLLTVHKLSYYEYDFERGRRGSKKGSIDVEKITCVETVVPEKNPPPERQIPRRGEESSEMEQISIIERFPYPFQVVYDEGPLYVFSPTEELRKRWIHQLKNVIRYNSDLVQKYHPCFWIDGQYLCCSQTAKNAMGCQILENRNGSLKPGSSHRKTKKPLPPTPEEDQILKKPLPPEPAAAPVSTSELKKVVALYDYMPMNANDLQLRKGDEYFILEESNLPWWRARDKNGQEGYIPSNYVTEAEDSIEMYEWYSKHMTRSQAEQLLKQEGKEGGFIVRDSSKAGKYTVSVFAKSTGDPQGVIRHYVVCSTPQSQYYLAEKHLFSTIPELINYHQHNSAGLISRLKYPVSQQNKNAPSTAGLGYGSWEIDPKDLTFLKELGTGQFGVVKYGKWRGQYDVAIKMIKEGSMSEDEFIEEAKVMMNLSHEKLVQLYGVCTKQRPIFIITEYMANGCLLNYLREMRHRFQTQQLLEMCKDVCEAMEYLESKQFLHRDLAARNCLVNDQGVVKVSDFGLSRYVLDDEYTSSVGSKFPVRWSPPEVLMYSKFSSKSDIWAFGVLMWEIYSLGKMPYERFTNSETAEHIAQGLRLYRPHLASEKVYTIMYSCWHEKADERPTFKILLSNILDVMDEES

SMILES	IC50	IC50 [1]
N#Cc1c(N)ncnc1N1CCCC(c2cccc(NC(=O)Nc3ccccc3)c2)C1 (stereo not shown) [Cmpd 102, 1-(3-(1-(6-Amino-5-cyanopyrimidin-4-yl)piperidin-3-yl)phenyl)-3-phenylurea]	100 to 999 nM	–
O=C(Nc1ccccc1)Nc1cccc(C2CCCN(c3ncnc4[nH]cnc34)C2)c1 (stereo not shown) [Cmpd 103, 1-(3-(1-(9H-Purin-6-yl)piperidin-3-yl)phenyl)-3-phenylurea]	100 to 999 nM	–
O=C(Nc1cccc(C2CCCN(c3ncnc4[nH]ccc34)C2)c1)c1ccncc1 (stereo not shown) [compound 11, N-(3-(1-(7H-pyrrolo[2,3-d]pyrimidin-4-yl)piperidin-3-yl)phenyl)isonicotinamide]	–	> 10000 nM
O=C(Nc1cccc(C2CCCN(c3ncnc4[nH]ccc34)C2)c1)c1cccnc1 (stereo not shown) [compound 12, N-(3-(1-(7H-pyrrolo[2,3-d]pyrimidin-4-yl)piperidin-3-yl)phenyl)nicotinamide]	–	> 10000 nM
O=C(Nc1cccc(C2CCCN(c3ncnc4[nH]ccc34)C2)c1)c1ccccn1 (stereo not shown) [compound 13, N-(3-(1-(7H-pyrrolo[2,3-d]pyrimidin-4-yl)piperidin-3-yl)phenyl)picolinamide]	–	> 10000 nM
O=C(Nc1cccc(C2CCCN(c3ncnc4[nH]ccc34)C2)c1)c1ccc[nH]1 (stereo not shown) [compound 14, N-(3-(1-(7H-pyrrolo[2,3-d]pyrimidin-4-yl)piperidin-3-yl)phenyl)-1H-pyrrole-2-carboxamide]	–	> 10000 nM
O=C(Nc1cccc(C2CCCN(c3ncnc4[nH]ccc34)C2)c1)c1cccc(O)c1 (stereo not shown) [compound 15, N-(3-(1-(7H-pyrrolo[2,3-d]pyrimidin-4-yl)piperidin-3-yl)phenyl)-3-hydroxybenzamide]	–	> 10000 nM
c1ccc(Nc2nc3ccc(C4CCCN(c5ncnc6[nH]ccc56)C4)cc3[nH]2)cc1 (stereo not shown) [compound 105, 6-(1-(7H-pyrrolo[2,3-d]pyrimidin-4-yl)piperidin-3-yl)-N-phenyl-1H-benzo[d]imidazol-2-amine]	1000 to 10000 nM	–
O=C(Nc1ccccc1)Nc1csc(C2CCCN(c3ncnc4[nH]ccc34)C2)n1 (stereo not shown) [compound 106, 1-(2-(1-(7H-pyrrolo[2,3-d]pyrimidin-4-yl)piperidin-3-yl)thiazol-4-yl)-3-phenylurea]	1000 to 10000 nM	–
O=C(Nc1csc(C2CCCN(c3ncnc4[nH]ccc34)C2)n1)Nc1ccccc1N1CCCC1 (stereo not shown) [compound 107, 1-(2-(1-(7H-pyrrolo[2,3-d]pyrimidin-4-yl)piperidin-3-yl)thiazol-4-yl)-3-(2-(pyrrolidin-1-yl)phenyl)urea]	–	< 100 nM
N#Cc1c(N)ncnc1N1CCCC(c2nc(NC(=O)Nc3ccccc3N3CCCC3)cs2)C1 (stereo not shown) [compound 109, 1-(2-(1-(6-amino-5-cyanopyrimidin-4-yl)piperidin-3-yl)thiazol-4-yl)-3-(2-(pyrrolidin-1-yl)phenyl)urea]	–	< 100 nM
O=C(Nc1csc(C2CCCN(c3ncnc4[nH]ncc34)C2)n1)Nc1ccccc1N1CCCC1 (stereo not shown) [compound 110, 1-(2-(1-(1H-pyrazolo[3,4-d]pyrimidin-4-yl)piperidin-3-yl)thiazol-4-yl)-3-(2-(pyrrolidin-1-yl)phenyl)urea]	–	< 100 nM
O=C(Nc1csc(C2CCCN(c3ncnc4[nH]ccc34)C2)n1)Nc1c(F)cc(F)cc1N1CCCC1 (stereo not shown) [compound 111, 1-(2-(1-(7H-pyrrolo[2,3-d]pyrimidin-4-yl)piperidin-3-yl)thiazol-4-yl)-3-(2,4-difluoro-6-(pyrrolidin-1-yl)phenyl)urea]	–	< 100 nM
O=C(Nc1csc(C2CCCN(c3ncnc4[nH]ncc34)C2)n1)Nc1c(F)cc(F)cc1N1CCCC1 (stereo not shown) [compound 112, 1-(2-(1-(1H-pyrazolo[3,4-d]pyrimidin-4-yl)piperidin-3-yl)thiazol-4-yl)-3-(2,4-difluoro-6-(pyrrolidin-1-yl)phenyl)urea]	–	< 100 nM
N#Cc1c(N)ncnc1N1CCCC(c2nc(NC(=O)Nc3c(F)cc(F)cc3N3CCCC3)cs2)C1 (stereo not shown) [compound 113, 1-(2-(1-(6-amino-5-cyanopyrimidin-4-yl)piperidin-3-yl)thiazol-4-yl)-3-(2,4-difluoro-6-(pyrrolidin-1-yl)phenyl)urea]	–	< 100 nM
Nc1ncnc(N2CCCC(c3nc(NC(=O)Nc4c(F)cc(F)cc4N4CCCC4)cs3)C2)c1Cl (stereo not shown) [compound 114, 1-(2-(1-(6-amino-5-chloropyrimidin-4-yl)piperidin-3-yl)thiazol-4-yl)-3-(2,4-difluoro-6-(pyrrolidin-1-yl)phenyl)urea]	100 to 999 nM	–
O=C(Nc1ccccc1)Nc1ncc(C2CCCN(c3ncnc4[nH]ccc34)C2)s1 (stereo not shown) [compound 115, 1-(5-(1-(7H-pyrrolo[2,3-d]pyrimidin-4-yl)piperidin-3-yl)thiazol-2-yl)-3-phenylurea]	–	> 10000 nM
O=C(Nc1ccccc1)Nc1nc(C2CCCN(c3ncnc4[nH]ccc34)C2)cs1 (stereo not shown) [compound 116, 1-(4-(1-(7H-pyrrolo[2,3-d]pyrimidin-4-yl)piperidin-3-yl)thiazol-2-yl)-3-phenylurea]	1000 to 10000 nM	–
O=C(Nc1ccccc1)Nc1cnc(C2CCCN(c3ncnc4[nH]ccc34)C2)s1 (stereo not shown) [compound 117, 1-(2-(1-(7H-pyrrolo[2,3-d]pyrimidin-4-yl)piperidin-3-yl)thiazol-5-yl)-3-phenylurea]	–	> 10000 nM

SMILES	IC50	IC50 [1]
O=C(Nc1ccccc1)Nc1cccc(C2CCCN(c3ncnc4[nH]ccc34)C2)n1 (stereo not shown) [compound 118, 1-(6-(1-(7H-pyrrolo[2,3-d]pyrimidin-4-yl)piperidin-3-yl)pyridin-2-yl)-3-phenylurea]	1000 to 10000 nM	–
O=c1nc(Nc2cccc(C3CCCN(c4ncnc5[nH]ccc45)C3)c2)[nH]c2ccccc12 (stereo not shown) [compound 119, 2-(3-(1-(7H-pyrrolo[2,3-d]pyrimidin-4-yl)piperidin-3-yl)phenylamino)quinazolin-4(1H)-one]	–	> 10000 nM
O=c1nc(Nc2cccc(C3CCCN(c4ncnc5[nH]ccc45)C3)c2)[nH]c2c1CCCC2 (stereo not shown) [compound 120, 2-(3-(1-(7H-pyrrolo[2,3-d]pyrimidin-4-yl)piperidin-3-yl)phenylamino)-5,6,7,8-tetrahydroquinazolin-4(1H)-one]	1000 to 10000 nM	–
CC(C)c1cc(=O)nc(Nc2cccc(C3CCCN(c4ncnc5[nH]ccc45)C3)c2)[nH]1 (stereo not shown) [compound 121, 2-(3-(1-(7H-pyrrolo[2,3-d]pyrimidin-4-yl)piperidin-3-yl)phenylamino)-6-isopropylpyrimidin-4(1H)-one]	1000 to 10000 nM	–
Cc1cc(=O)nc(Nc2cccc(C3CCCN(c4ncnc5[nH]ccc45)C3)c2)[nH]1 (stereo not shown) [compound 122, 2-(3-(1-(7H-pyrrolo[2,3-d]pyrimidin-4-yl)piperidin-3-yl)phenylamino)-6-methylpyrimidin-4(1H)-one]	–	> 10000 nM
O=C(Nc1cccc([C@H]2CN(c3ncnc4[nH]ccc34)CC[C@H]2CO)c1)Nc1ccccc1N1CCCC1 [compound 123, 1-(3-((3S/R)-4-(hydroxymethyl)-1-(7H-pyrrolo[2,3-d]pyrimidin-4-yl)piperidin-3-yl)phenyl)-3-(2-(pyrrolidin-1-yl)phenyl)urea]	100 to 999 nM	–
O=C(Nc1cccc(C2CN(c3ncnc4[nH]ccc34)CCN2CCO)c1)Nc1ccccc1N1CCCC1 (stereo not shown) [compound 124, 1-(3-(1-(2-hydroxyethyl)-4-(7H-pyrrolo[2,3-d]pyrimidin-4-yl)piperazin-2-yl)phenyl)-3-(2-(pyrrolidin-1-yl)phenyl)urea]	100 to 999 nM	–
O=C(Nc1ccccc1)Nc1cccc(C2CN(c3ncnc4[nH]ccc34)CCN2)c1 (stereo not shown) [compound 125, 1-(3-(4-(7H-pyrrolo[2,3-N]pyrimidin-4-yl)piperazin-2-yl)phenyl)-3-phenylurea]	1000 to 10000 nM	–
CC(=O)N1CCN(c2ncnc3[nH]ccc23)CC1c1cccc(NC(=O)Nc2ccccc2)c1 (stereo not shown) [compound 127, 1-(3-(1-acetyl-4-(7H-pyrrolo[2,3-d]pyrimidin-4-yl)piperazin-2-yl)phenyl)-3-phenylurea]	–	> 10000 nM
CS(=O)(=O)N1CCN(c2ncnc3[nH]ccc23)CC1c1cccc(NC(=O)Nc2ccccc2)c1 (stereo not shown) [compound 128, 1-(3-(1-(methylsulfonyl)-4-(7H-pyrrolo[2,3-d]pyrimidin-4-yl)piperazin-2-yl)phenyl)-3-phenylurea]	–	> 10000 nM
CC(C)CN1CCN(c2ncnc3[nH]ccc23)CC1c1cccc(NC(=O)Nc2ccccc2)c1 (stereo not shown) [compound 129, 1-(3-(1-isobutyl-4-(7H-pyrrolo[2,3-d]pyrimidin-4-yl)piperazin-2-yl)phenyl)-3-phenylurea]	1000 to 10000 nM	–
CC(C)c1ccccc1NC(=O)Nc1cccc(C2CN(c3ncnc4[nH]ccc34)CCN2CCO)c1 (stereo not shown) [compound 133, 1-(3-(1-(2-hydroxyethyl)-4-(7H-pyrrolo[2,3-d]pyrimidin-4-yl)piperazin-2-yl)phenyl)-3-(2-isopropylphenyl)urea]	100 to 999 nM	–
O=C(Nc1cccc(C2CN(c3ncnc4[nH]ccc34)CCN2CCO)c1)Nc1c(Cl)cccc1Cl (stereo not shown) [compound 134, 1-(2,6-Dichlorophenyl)-3-(3-(1-(2-hydroxyethyl)-4-(7H-pyrrolo[2,3-d]pyrimidin-4-yl)piperazin-2-yl)phenyl)urea]	100 to 999 nM	–
O=C(Nc1cccc(C2CN(c3ncnc4[nH]ccc34)CCN2CCO)c1)Nc1c(F)cccc1N1CCCC1 (stereo not shown) [compound 135, 1-(2-Fluoro-6-(pyrrolidin-1-yl)phenyl)-3-(3-(1-(2-hydroxyethyl)-4-(7H-pyrrolo[2,3-d]pyrimidin-4-yl)piperazin-2-yl)phenyl)urea]	–	< 100 nM
CN(C(=O)Nc1ccccc1)c1cccc(C2CCCN(c3ncnc4[nH]ccc34)C2)c1 (stereo not shown) [compound 136, 1-(3-(1-(7H-Pyrrolo[2,3-d]pyrimidin-4-yl)piperidin-3-yl)phenyl)-1-methyl-3-phenylurea]	–	> 10000 nM
c1ccc(Nc2cccc(C3CCCN(c4ncnc5[nH]ccc45)C3)c2)nc1 (stereo not shown) [compound 140, N-(3-(1-(7H-pyrrolo[2,3-d]pyrimidin-4-yl)piperidin-3-yl)phenyl)pyridin-2-amine]	1000 to 10000 nM	–
c1cnc(Nc2cccc(C3CCCN(c4ncnc5[nH]ccc45)C3)c2)nc1 (stereo not shown) [compound 141, N-(3-(1-(7H-pyrrolo[2,3-d]pyrimidin-4-yl)piperidin-3-yl)phenyl)pyrimidin-2-amine]	–	> 10000 nM
FC(F)(F)c1ccc(Nc2cccc(C3CCCN(c4ncnc5[nH]ccc45)C3)c2)nc1 (stereo not shown) [compound 142, N-(3-(1-(7H-pyrrolo[2,3-d]pyrimidin-4-yl)piperidin-3-yl)phenyl)-5-(trifluoromethyl)pyridin-2-amine]	–	> 10000 nM
